The source of these data is ChEMBL document CHEMBL1201862, “PubChem BioAssay data set” (2004).

Among the test systems are NCI-H23; U-251; HT-29; SK-MEL-28; 786-0; MOLT-4; A498; NCI-H522; SNB-75; LOX IMVI; UACC-257; HOP-62; SK-MEL-2; OVCAR-5; HCT-15; RPMI-8226; K562; NCI-H460.
Common to all, as to assay: NCI anticancer screen, dose series, 48 h

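These data come from cells grown in 96-well plates and exposed to compound for 48 hours at five concentrations. Abbreviation: GI50, concentration required for 50% inhibition of growth.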 Calls of active or inactive are those of the source. Rule as the data show it: active = GI50 up to about 1.1 µM and inactive = higher.

With `CC(=O)OCC1OC(n2c(-c3ccc(N)cc3)cc(-c3ccco3)c(C#N)c2=O)C(OC(C)=O)C(OC(C)=O)C1OC(C)=O` (stereo not given), the GI50 in the experiment on NCI-H23 was 26 µM (inactive); with U-251 it was 7.06 µM (inactive); in the experiment with HT-29 it was > 50 µM (inactive); in the experiment on SK-MEL-28, > 50 µM (inactive); with 786-0, 14.2 µM (inactive); with MOLT-4 it was > 50 µM (inactive). Also, the GI50 is > 50 µM (inactive) in the experiment on A498; 8.17 µM (inactive) in the experiment on NCI-H522; > 50 µM (inactive) in the experiment on SNB-75; 8.04 µM (inactive) in the experiment with LOX IMVI; > 50 µM (inactive) with UACC-257; > 50 µM (inactive) with HOP-62. Further, the values for the GI50 with SK-MEL-2, with OVCAR-5 and in the experiment with HCT-15 were 22.4 µM (inactive), > 50 µM (inactive) and > 50 µM, respectively.

`COC1(OC)CC2C(=O)N(Cc3ccccc3)C1C=C2S(=O)(=O)c1ccccc1` (stereo not given): the GI50 is 18 µM (inactive) in the experiment with NCI-H23; 15.5 µM (inactive) in the experiment with U-251; 18.5 µM (inactive) in the experiment on HT-29; 21 µM (inactive) with RPMI-8226; 17.5 µM (inactive) in the experiment on SK-MEL-28; 19.7 µM (inactive) with 786-0. Also, the GI50 with MOLT-4 is 16.5 µM (inactive); in the experiment with A498 it was 20 µM (inactive); with NCI-H522, 13.9 µM (inactive); in the experiment on SNB-75 it was 28.8 µM (inactive); with LOX IMVI it was 13.4 µM (inactive); with UACC-257 it was 16.9 µM (inactive). In addition, the GI50 with HOP-62 was 38.8 µM (inactive); in the experiment on K562, 22.5 µM (inactive); with NCI-H460, 18.2 µM (inactive).

As to `CC(C)(C)C(=O)OCC(COC(=O)C(C)(C)C)[N+](=O)[O-]`, the GI50 with NCI-H23 was > 100 µM (inactive); in the experiment with U-251, > 100 µM (inactive); in the experiment on HT-29 it was > 100 µM (inactive); in the experiment with RPMI-8226, 45.3 µM (inactive); with SK-MEL-28, > 100 µM (inactive); in the experiment on 786-0, > 100 µM (inactive). For the same compound, the GI50 was 80.2 µM (inactive) with MOLT-4; 19.1 µM (inactive) in the experiment on NCI-H522; > 100 µM (inactive) with SNB-75; > 100 µM (inactive) with LOX IMVI; > 100 µM (inactive) in the experiment on UACC-257; > 100 µM (inactive) in the experiment with SK-MEL-2. The GI50 in the experiment with OVCAR-5 was > 100 µM (inactive); in the experiment with K562, 47.6 µM (inactive); with NCI-H460, > 100 µM (inactive); in the experiment with HCT-15, > 100 µM.

Regarding `CCC1CN2CCc3cc(OC)c(OC)cc3C2CC1CC1c2cc(OC)c(OC)cc2CCN1C(=O)C1CCCN1C(=O)OCc1ccccc1` (stereo not given), the GI50 in the experiment with NCI-H23 was 16.3 µM (inactive); in the experiment with U-251, 15 µM (inactive); with HT-29, 14.1 µM (inactive); in the experiment on RPMI-8226 it was 15 µM (inactive); in the experiment with SK-MEL-28, 16.9 µM (inactive); in the experiment with 786-0 it was 19.4 µM (inactive). In addition, the GI50 in the experiment with A498 was 16.3 µM (inactive); in the experiment with SNB-75, 14.4 µM (inactive); in the experiment with LOX IMVI it was 15 µM (inactive); in the experiment with UACC-257, 16.9 µM (inactive); in the experiment on HOP-62, 16.2 µM (inactive); in the experiment with SK-MEL-2 it was 17.2 µM (inactive). In addition, the GI50 with OVCAR-5 was 18.1 µM (inactive); with K562, 16.2 µM (inactive); in the experiment on NCI-H460, 15.5 µM (inactive); in the experiment with HCT-15, 16.2 µM.

`CCN(CC)C(=O)c1c(Cl)cc(N(CC)CC)oc1=O`: the GI50 with NCI-H23, in the experiment with U-251, with HT-29, in the experiment on RPMI-8226, in the experiment with SK-MEL-28 and with 786-0 was > 100 µM (inactive) each time. The GI50 in the experiment with MOLT-4, in the experiment with A498, with NCI-H522, in the experiment on SNB-75, in the experiment with LOX IMVI and with UACC-257 was > 100 µM (inactive) throughout. For the same compound, the GI50 in the experiment on HOP-62 was > 100 µM (inactive); with SK-MEL-2, > 100 µM (inactive); in the experiment with K562 it was > 100 µM (inactive); in the experiment with NCI-H460 it was > 100 µM (inactive); in the experiment with HCT-15, > 100 µM.

In the case of `CC(=O)Nc1ccccc1-c1nc2ccccc2nc1-c1ccccc1`, the GI50 in the experiment with NCI-H23, with U-251, in the experiment with HT-29, in the experiment on RPMI-8226, in the experiment on SK-MEL-28 and with 786-0 was > 100 µM (inactive) in each case. In addition, the GI50 in the experiment with MOLT-4 is > 100 µM (inactive); in the experiment with A498, > 100 µM (inactive); in the experiment with SNB-75 it was 69.7 µM (inactive); with UACC-257, > 100 µM (inactive); in the experiment on HOP-62, > 100 µM (inactive); with SK-MEL-2, > 100 µM (inactive). Moreover, the figures for the GI50 in the experiment on K562, with NCI-H460 and in the experiment with HCT-15 were > 100 µM (inactive), > 100 µM (inactive) and > 100 µM, respectively.

As to `CC(=O)Nc1ccc(-c2nnc(SCC(=O)Nc3ccc([N+](=O)[O-])cc3)o2)cc1`, the GI50 in the experiment on NCI-H23 is 12.2 µM (inactive); in the experiment on U-251, 14.7 µM (inactive); with HT-29 it was 13.4 µM (inactive); in the experiment on RPMI-8226, 24.7 µM (inactive); with SK-MEL-28 it was 14.3 µM (inactive); in the experiment on 786-0 it was 11.3 µM (inactive). Moreover, the GI50 in the experiment with MOLT-4 is 12.2 µM (inactive); in the experiment on NCI-H522, 7.85 µM (inactive); in the experiment on SNB-75 it was 13.2 µM (inactive); with LOX IMVI, 5.15 µM (inactive); in the experiment on UACC-257 it was 12.1 µM (inactive); in the experiment with HOP-62, 26.3 µM (inactive). The GI50 with SK-MEL-2 was 14.3 µM (inactive); in the experiment on OVCAR-5, 19.8 µM (inactive); in the experiment on K562, 36.4 µM (inactive); in the experiment on NCI-H460 it was 15.2 µM (inactive); in the experiment on HCT-15 it was 12.9 µM.

Take `C[C@]12CC[C@@H]3c4ccccc4CC[C@H]3[C@@H]1CC[C@@H]2O`: the GI50 in the experiment on NCI-H23 is > 100 µM (inactive); in the experiment with U-251 it was > 100 µM (inactive); in the experiment with RPMI-8226, 53.2 µM (inactive); with SK-MEL-28, > 100 µM (inactive); in the experiment on 786-0, > 100 µM (inactive); with MOLT-4 it was 45.5 µM (inactive). The GI50 was 49.2 µM (inactive) in the experiment on NCI-H522; 54.7 µM (inactive) in the experiment on SNB-75; 77.4 µM (inactive) with LOX IMVI; > 100 µM (inactive) with UACC-257; > 100 µM (inactive) in the experiment on HOP-62; 32.1 µM (inactive) in the experiment on K562. The GI50 was 38.5 µM (inactive) in the experiment on NCI-H460 and 50.2 µM in the experiment on HCT-15.

Consider `N#CC(/C(=N\NC(=O)c1ccncc1)C(=O)Nc1ccc([N+](=O)[O-])cc1[N+](=O)[O-])c1nc(-c2ccc(Br)cc2)cs1` (stereo not given), for which the GI50 in the experiment with U-251, in the experiment with RPMI-8226, in the experiment on SK-MEL-28, with 786-0, in the experiment on MOLT-4 and with A498 was > 100 µM (inactive) throughout. The GI50 in the experiment with SNB-75, with LOX IMVI, with UACC-257, with HOP-62, in the experiment with SK-MEL-2 and in the experiment on OVCAR-5 was > 100 µM (inactive) in each case. Besides, the GI50 with K562 was > 100 µM (inactive); with NCI-H460, > 100 µM (inactive); in the experiment with HCT-15 it was > 100 µM.

For `COc1ccc(OC)c(NC(=O)C(=O)CC(=O)c2sc(-n3nc(-c4ccccc4)cc3-c3ccccc3)nc2C)c1`, the GI50 in the experiment on NCI-H23, in the experiment with U-251, in the experiment with HT-29, with RPMI-8226, in the experiment with 786-0 and with MOLT-4 was > 100 µM (inactive) in each case. Further, the GI50 in the experiment on A498, with NCI-H522, with SNB-75, in the experiment with LOX IMVI, with UACC-257 and with HOP-62 was > 100 µM (inactive) each time. Further, the GI50 in the experiment with SK-MEL-2 was > 100 µM (inactive); in the experiment with OVCAR-5 it was > 100 µM (inactive); in the experiment with K562 it was > 100 µM (inactive); in the experiment on NCI-H460 it was > 100 µM (inactive); in the experiment on HCT-15 it was > 100 µM.

For `COc1ccc(NC(=O)/C(O)=C/C(=O)c2ccccc2)cc1`, the GI50 was > 10 µM (inactive) with NCI-H23; > 10 µM (inactive) in the experiment on HT-29; > 10 µM (inactive) in the experiment on RPMI-8226; > 10 µM (inactive) with SK-MEL-28; > 10 µM (inactive) in the experiment on 786-0; 1.95 µM (inactive) in the experiment with MOLT-4. Besides, the GI50 in the experiment with SNB-75 was > 10 µM (inactive); in the experiment on LOX IMVI, 1.96 µM (inactive); with UACC-257, > 10 µM (inactive); with HOP-62 it was > 10 µM (inactive); in the experiment on K562, > 10 µM (inactive); in the experiment on HCT-15, > 10 µM.

Turning to `N#C/C(=C\c1ccccc1F)C(=O)c1ccccc1`, the GI50 with NCI-H23, in the experiment with U-251, in the experiment with HT-29, with RPMI-8226, in the experiment with SK-MEL-28 and with 786-0 was > 100 µM (inactive) in each case. For the same compound, the GI50 with MOLT-4, in the experiment on A498, with NCI-H522, in the experiment with LOX IMVI, in the experiment with UACC-257 and with HOP-62 was > 100 µM (inactive) in each case. Besides, the GI50 in the experiment with SK-MEL-2 was > 100 µM (inactive); in the experiment on OVCAR-5, > 100 µM (inactive); in the experiment on K562 it was > 100 µM (inactive); in the experiment with HCT-15 it was > 100 µM.

Consider `CC(C(=O)N1C(=O)N(C(=O)[C@H](C)C(O)c2ccccc2)[C@H](c2ccccc2)[C@H]1c1ccccc1)[C@@H](O)c1ccccc1` (stereo not given in full), for which the GI50 in the experiment on NCI-H23 was 44.4 µM (inactive); in the experiment with U-251, 35.9 µM (inactive); in the experiment with HT-29, 36.6 µM (inactive); with SK-MEL-28, > 100 µM (inactive); in the experiment on 786-0, 29.2 µM (inactive); in the experiment on A498 it was 24.3 µM (inactive). Besides, the GI50 was 30.3 µM (inactive) in the experiment on NCI-H522; 28 µM (inactive) with SNB-75; 28.4 µM (inactive) in the experiment with UACC-257; 37.1 µM (inactive) in the experiment on HOP-62; 16.9 µM (inactive) in the experiment with SK-MEL-2; 25.2 µM (inactive) with OVCAR-5. The figures for the GI50 in the experiment with K562, in the experiment on NCI-H460 and in the experiment on HCT-15 were 17.5 µM (inactive), 22.4 µM (inactive) and 45.7 µM, respectively.
